Source: article PMC8309005, “Novel Non-Congeneric Derivatives of the Choline Kinase Alpha Inhibitor ICL-CCIC-0019” (Pharmaceutics, 2021)

Assays:
[1] = test system: PC3 cell line; assay: Anti-proliferative SRB assay, PC3; assay type: cell-based; conditions: Homo sapiens, PC-3; PC3, PSMA −; Table S3, ± SD
Protocol: (§1) Half-maximal growth inhibitory concentrations (GI50) were determined using sulforhodamine B (SRB) assay as described elsewhere. In brief, cells were seeded in 96-wells at respective cell densities determined by their cell growth curves. After 24 h, the cells were treated in six replicates with medium or different concentrations of CHKA inhibitors in medium and incubated for another 72 h. On completion of incubation, the cells were fixed with 10% trichloroacetic acid (TCA) and stained with 0.4% SRB in 1% acetic acid. The stained protein was solubilized with 10 mM Tris base and optical density values were measured at 540 nm using a Multiskan® EX Micro plate photometer (Thermo Scientific, Loughborough, UK). Growth inhibition curves were plotted as percentage of the control groups and GI50 data were determined by least squares fitting method using GraphPad Prism 7.0. All the chemicals used in this experiment were obtained from Sigma-Aldrich (Gillingham, UK).

[2] = target: T1, PIP5K2A (Homo sapiens, UniProt P48426); assay: Lipid kinase screening (ADP-Glo), PIP5K2A; assay type: biochemical
T1 sequence (P48426 1-406): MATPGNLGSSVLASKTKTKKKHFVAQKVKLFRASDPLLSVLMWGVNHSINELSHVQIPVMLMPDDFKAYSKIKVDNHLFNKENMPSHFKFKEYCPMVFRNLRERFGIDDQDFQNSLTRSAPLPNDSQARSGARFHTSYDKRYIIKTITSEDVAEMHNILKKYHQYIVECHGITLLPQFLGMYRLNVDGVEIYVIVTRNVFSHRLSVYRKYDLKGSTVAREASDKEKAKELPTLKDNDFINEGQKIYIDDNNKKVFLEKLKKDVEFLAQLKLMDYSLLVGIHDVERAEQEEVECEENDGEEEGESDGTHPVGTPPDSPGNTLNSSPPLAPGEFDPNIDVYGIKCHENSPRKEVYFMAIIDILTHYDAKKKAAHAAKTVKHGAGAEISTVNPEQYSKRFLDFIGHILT
Protocol: (§2) The lipid kinase screening for ICL-CCIC-0019, CK14, CK145 (5), CK146 (4) and CK147 (8) (testing concentration for all compounds: 10 μM) was performed by MRC PPU International Centre for Kinase Profiling (Dundee, UK). The lipid kinase screening panel includes 15 human recombinant lipid kinases and the tests used Promega ADP Glo^TM High Throughput Assay kit (Promega, Southampton, UK). For each assay, reference compounds were used as quality control. Finally, mean percentage activity inhibited by compounds and standard deviation for all the repeats were calculated.

[3] = test system: four cancer cell lines (HCT-116, A549, HepG2, Caco-2); assay: Anti-proliferative SRB assay, mean of four cancer cell lines; assay type: cell-based; conditions: Homo sapiens
Protocol: as §1

[4] = test system: PNT1A cell line; assay: Anti-proliferative SRB assay, PNT1A; assay type: cell-based; conditions: Homo sapiens, PSMA −, Table S3, ± SD
Protocol: as §1

[5] = test system: [18F]D4-FCH uptake in C4-2B cells; assay: [18F]D4-FCH uptake in vitro study, C4-2B; assay type: cell-based; conditions: Homo sapiens, 1 μM, read-out: inhibition of [18F]D4-FCH uptake (mean of CK14, CK145 and CK146)
Protocol: HCT-116 and C4-2B cells were seeded at a density of 5 × 10^5 cells per well into 6-well plates and incubated overnight. Cells were treated with 1 or 10 µM CHKA inhibitors (CK14, CK145, CK146 and CK147) for 1 h and pulsed with [^18F]D4-FCH (740 kBq) in presence of inhibitors in 1 mL for an additional hour at 37 °C. Cells were washed with ice-cold PBS three times and lysed in 1 mL RIPA buffer. The radioactivity of 800 µL lysate from each well was counted on a gamma counter (Perkin Elmer, Beaconsfield, UK) and normalized to protein content as determined by BCA assay.

[6] = Caco-2 permeability and efflux study; assay type: in vitro ADME, human; conditions: human; for efflux ratio: Caco-2, read-out: Efflux ratio (Papp B-A/Papp A-B); for Papp A→B: Caco-2, apical to basolateral, read-out: Papp A-B; for Papp B→A: Caco-2, basolateral to apical, read-out: Papp B-A
Protocol: (§3) The ADME study for ICL-CCIC-0019, CK14, CK145 (5), CK146 (4) and CK147 (8) was performed by Charles River Drug Discovery Services (Essex, UK).
(§4) The predicted in vitro pharmacokinetic characteristics of compounds were evaluated by four ADME assays, namely kinetic solubility assay, metabolic stability assay using human liver microsome S9, permeability and efflux study using the Caco-2 cell line, and matrix stability assay using fasted state simulated gastric fluid (FaSSGF). All tested CHKA inhibitors were highly soluble (>150 μM) in 0.1 M PBS (2% DMSO) (Table 1). […] The in vivo clearance was calculated to predict the actual clearance in humans by scaling the clearance values, which takes into account liver weight, microsomes per liver and liver blood flow. […] In Caco-2 cell permeability assay, drug permeability was investigated and presented as apparent permeability coefficients (Papp) in A to B (A-B, apical to basolateral direction) and B to A (B-A, basolateral to apical direction).

[7] = test system: PI3Ka E524K + p85; assay: Lipid kinase screening (ADP-Glo), PI3Ka E524K + p85; assay type: biochemical, human; conditions: 10 μM
Protocol: as §2

[8] = test system: HCT-116 colorectal cancer cells; assay: Cellular uptake and metabolism study in HCT-116 (HPLC); assay type: cell-based, human; conditions: HCT-116, 50 μM
Protocol: The cell pellets were resuspended in 1 mL water: acetonitrile: formic acid (95:5:0.2, v/v/v) and disrupted by an ultrasonic cell disruptor (Soniprep 150, MSE Ltd., London, UK) for 1 min on ice. One hundred microliters of the filtered supernatant from centrifuge (4 °C, 15,000× g) were analyzed by HPLC. Three injections were performed for each sample. […] The HPLC method used in this study is described in Supplementary HPLC method C.

[9] = test system: A549 cells; assay: Anti-proliferative SRB assay, A549; assay type: cell-based; conditions: Homo sapiens, 72 h, Table S2, ± SD
Protocol: as §1

[10] = target: DGK z (Homo sapiens, UniProt Q13574); assay: Lipid kinase screening (ADP-Glo), DGK z; assay type: biochemical
Protocol: as §2

[11] = target: PI3Ka E545K + p85 (Homo sapiens, UniProt P42336, E545K); assay: Lipid kinase screening (ADP-Glo), PI3Ka E545K + p85; assay type: biochemical
Protocol: as §2

[12] = target: DGK b (Homo sapiens, UniProt Q9Y6T7); assay: Lipid kinase screening (ADP-Glo), DGK b; assay type: biochemical
Protocol: as §2

[13] = Kinetic solubility assay; assay type: physicochemical; conditions: 0.1 M PBS (2% DMSO), aqueous buffer, kinetic from dmso stock; read-out: Kinetic Solubility: Solubility
Protocol: as §3, §4

[14] = test system: eight cell lines (22Rv1, C4-2B, LNCap, PC3, PNT1A, R1-AD1, R1-D567, HCT-116); assay: Anti-proliferative SRB assay, mean across eight cell lines; assay type: cell-based; conditions: Homo sapiens
Protocol: as §1

Chain of PI3Ka E545K + p85 (P42336 whole entry E545K): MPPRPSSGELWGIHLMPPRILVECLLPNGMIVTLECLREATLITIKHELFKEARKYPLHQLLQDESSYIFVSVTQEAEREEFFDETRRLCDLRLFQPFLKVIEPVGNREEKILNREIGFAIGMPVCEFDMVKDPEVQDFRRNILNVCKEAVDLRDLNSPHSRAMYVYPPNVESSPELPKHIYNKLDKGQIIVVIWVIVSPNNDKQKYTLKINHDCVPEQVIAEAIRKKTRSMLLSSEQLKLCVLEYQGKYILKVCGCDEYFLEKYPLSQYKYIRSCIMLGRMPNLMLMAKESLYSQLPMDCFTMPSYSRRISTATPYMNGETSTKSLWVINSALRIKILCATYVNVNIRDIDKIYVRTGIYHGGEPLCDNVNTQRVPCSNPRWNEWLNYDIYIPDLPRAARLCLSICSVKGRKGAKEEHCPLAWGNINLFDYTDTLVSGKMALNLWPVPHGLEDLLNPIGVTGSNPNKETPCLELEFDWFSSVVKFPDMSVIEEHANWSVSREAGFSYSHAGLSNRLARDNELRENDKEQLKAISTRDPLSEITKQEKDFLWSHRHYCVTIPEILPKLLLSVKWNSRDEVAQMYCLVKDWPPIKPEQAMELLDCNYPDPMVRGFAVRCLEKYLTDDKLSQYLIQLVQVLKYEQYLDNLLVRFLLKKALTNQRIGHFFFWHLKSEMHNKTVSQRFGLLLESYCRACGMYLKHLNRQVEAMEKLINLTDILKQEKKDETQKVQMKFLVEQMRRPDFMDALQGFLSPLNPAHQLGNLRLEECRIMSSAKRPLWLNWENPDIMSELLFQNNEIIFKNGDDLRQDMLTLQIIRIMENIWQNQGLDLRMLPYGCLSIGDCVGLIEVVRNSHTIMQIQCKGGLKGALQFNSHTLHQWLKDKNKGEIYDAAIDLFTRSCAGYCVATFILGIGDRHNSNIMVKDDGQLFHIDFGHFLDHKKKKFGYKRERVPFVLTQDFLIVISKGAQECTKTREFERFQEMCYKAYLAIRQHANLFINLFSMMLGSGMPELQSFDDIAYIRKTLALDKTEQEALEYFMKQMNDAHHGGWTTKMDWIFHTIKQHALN
Chain of PI3Ka E545K + p85 (P27986 whole entry partner): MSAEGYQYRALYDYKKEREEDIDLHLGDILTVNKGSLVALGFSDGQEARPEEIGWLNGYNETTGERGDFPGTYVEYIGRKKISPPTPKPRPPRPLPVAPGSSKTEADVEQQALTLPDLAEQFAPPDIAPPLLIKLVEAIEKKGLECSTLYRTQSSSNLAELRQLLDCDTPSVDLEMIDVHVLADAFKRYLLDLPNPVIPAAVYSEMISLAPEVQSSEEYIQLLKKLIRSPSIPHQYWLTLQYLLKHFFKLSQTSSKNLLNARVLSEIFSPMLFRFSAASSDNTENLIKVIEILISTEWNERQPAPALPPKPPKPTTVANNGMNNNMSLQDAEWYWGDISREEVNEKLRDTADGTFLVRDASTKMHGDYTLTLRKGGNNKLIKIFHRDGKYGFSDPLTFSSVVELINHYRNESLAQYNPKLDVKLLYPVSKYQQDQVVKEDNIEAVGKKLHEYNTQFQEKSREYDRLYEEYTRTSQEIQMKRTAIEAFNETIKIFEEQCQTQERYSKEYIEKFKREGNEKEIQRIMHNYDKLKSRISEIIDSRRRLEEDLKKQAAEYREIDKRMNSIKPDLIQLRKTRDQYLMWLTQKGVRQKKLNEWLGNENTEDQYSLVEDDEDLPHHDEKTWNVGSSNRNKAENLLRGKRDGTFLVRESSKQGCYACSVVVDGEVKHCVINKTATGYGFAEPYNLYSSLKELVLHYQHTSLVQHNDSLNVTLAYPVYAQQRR
Chain of DGK z (Q13574 whole entry): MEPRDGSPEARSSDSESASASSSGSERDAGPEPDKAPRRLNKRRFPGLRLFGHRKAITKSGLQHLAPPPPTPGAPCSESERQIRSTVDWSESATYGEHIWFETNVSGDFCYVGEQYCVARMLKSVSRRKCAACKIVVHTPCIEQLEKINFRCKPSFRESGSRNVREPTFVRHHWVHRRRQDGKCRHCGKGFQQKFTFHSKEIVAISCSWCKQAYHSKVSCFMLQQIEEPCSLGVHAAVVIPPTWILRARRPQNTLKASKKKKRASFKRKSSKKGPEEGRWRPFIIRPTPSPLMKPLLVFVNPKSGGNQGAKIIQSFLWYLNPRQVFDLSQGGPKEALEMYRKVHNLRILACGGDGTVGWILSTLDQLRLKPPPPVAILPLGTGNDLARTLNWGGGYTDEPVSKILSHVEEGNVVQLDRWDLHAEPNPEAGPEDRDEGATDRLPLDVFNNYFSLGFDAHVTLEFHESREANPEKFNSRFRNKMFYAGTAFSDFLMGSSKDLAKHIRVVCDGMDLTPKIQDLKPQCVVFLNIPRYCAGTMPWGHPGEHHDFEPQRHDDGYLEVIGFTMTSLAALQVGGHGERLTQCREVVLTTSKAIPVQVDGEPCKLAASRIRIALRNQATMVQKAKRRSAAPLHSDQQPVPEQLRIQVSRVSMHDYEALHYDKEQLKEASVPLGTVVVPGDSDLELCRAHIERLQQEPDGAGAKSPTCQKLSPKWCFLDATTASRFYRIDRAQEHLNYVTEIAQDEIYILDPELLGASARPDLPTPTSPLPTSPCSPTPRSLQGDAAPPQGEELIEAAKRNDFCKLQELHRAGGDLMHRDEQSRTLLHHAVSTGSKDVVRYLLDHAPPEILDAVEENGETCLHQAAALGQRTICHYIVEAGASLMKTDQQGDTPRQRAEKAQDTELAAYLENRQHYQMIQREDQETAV

GI50 [1] [nM]	inhibition at 10 µM [2] [%]	GI50 [3] [nM]	efflux ratio [6]	Papp A→B [6] [×10⁻⁶ cm/s]	Papp B→A [6] [×10⁻⁶ cm/s]	% Inhibition PI3Ka E524K + p85 [7] [%]	in vitro conversion to CK146 or intermediates (in words) ([8]; 1 h and 2 h, HPLC)	GI50 [9] [nM]	inhibition at 10 µM [10] [%]	inhibition at 10 µM [11] [%]	inhibition at 10 µM [12] [%]	solubility kinetic [13] [µM]	GI50 [14] [nM]	cellular uptake relative to CK145 ([8]; 1 h and 2 h post-incubation)	Structure (SMILES)	GI50 [4] [nM]	inhibition at 1 µM [5] [%]
84900 ± 7030	0.4	5000 ± 300	> 2.8	< 0.1	0.3	−0.1	not observed	2470 ± 60	11.6	-1.8	8	178	–	–	CC(=O)NCCCCC(NC(=O)OC(C)(C)C)C(=O)N1CCN(c2cc[n+](CCCCCCCCCCCCCC[n+]3ccc(N(C)C)cc3)cc2)CC1 (stereo not drawn) [CK145]	63600 ± 10400	46 ± 1
4730 ± 810	1.4	2500 ± 300	> 2.6	< 0.1	0.3	−6.5	–	2070 ± 200	8.6	-1	1.1	158	3800 ± 900	–	CN(C)c1cc[n+](CCCCCCCCCCCCCC[n+]2ccc(N3CCNCC3)cc2)cc1 [CK146]	3000 ± 260	46 ± 1
790 ± 30	-16.1	500 ± 20	> 8.6	< 0.1	0.9	1.6	–	50 ± 5	7.5	-6.1	8.6	161	600 ± 100	approximately two-fold	CN(C)c1cc[n+](CCCCCCCCCCCC[n+]2ccc(N(C)C)cc2)cc1 [ICL-CCIC-0019]	470 ± 80	–
